Results on one compound are retold here after patent publication US11529318B2, “Devices and methods for local delivery of tacrolimus” (UNIVERSITY OF PITTSBURGH—OF THE COMMONWEALTH SYSTEM OF …, priority 2017, dated 2022).

Data set [1] can be described thus: Tacrolimus concentration in whole blood (Example 3). The format is in vivo, Lewis rats. The following applies: Lewis, rat, intraperitoneal, 1 mg/kg, read-out: trough tacrolimus blood levels. Here is the method:
Quantification of Tacrolimus by LC-Tandem Mass Spectrometry (LC-MS/MS). Fifty microliters of blood containing an unknown concentration of Tacrolimus was added to a conical centrifugation tube, followed by 200 μL of zinc sulfate heptahydrate (ZnSO4.7H2O) to precipitate plasma proteins. Five hundred microliters of an acetonitrile based solution containing a deuterated internal standard (ascomycin) at a concentration of 15 ng/ml was then added, and the mixture was vortexed at 3000 rpm for 2 minutes and centrifugated at 13,000 rpm for 3 minutes and the supernatants collected in LCMS vials for analysis.
Analysis was performed using a fully validated, reverse phased method for the detection of TAC in blood on a Waters micromass Quattro micro API mass spectrometer that is operated in positive electrospray ionization mode, utilizing multiple reaction monitoring, with an injection volume of 20 μL. The Waters 2795 Alliance Separations Module was equipped with a nova-pack® C18 column, 2.1×10 mm cartridge (Waters #186003523) heated to 55° C. Analytes were effectively separated using a gradient elution consisting of an aqueous mobile phase (95% H2O/5% MeOH) and an organic mobile phase (100% MeOH), at a flow rate of 0.6 mL per minute. Mobile phases also contained 0.1% formic acid (CH2O2) and 2 mM ammonium acetate.

For data set [2], the system named is retinal ganglion cells (RGCs). The data set is described as follows: RGC viability analysis (calcein/propidium iodide live/dead kit). It counts as cell-based, rat. Particulars: for IC50: primary P3 rat RGCs, 3 days in vitro, 0.1 to 100 μM. Here is the method: (§1) Retinal ganglion cell isolation. RGCs were isolated from female and male postnatal day three (P3) Sprague-Dawley rat pups, purified by immunopanning, and cultured in NB-SATO media as previously described (Barres, Silverstein et al. 1988). The RGCs were seeded (5×10^3/cm^2) on cell culture plates coated with poly-D-lysine (70 kDa, 10 μg/mL; Sigma-Aldrich Corp., St. Louis, Mo., USA) and laminin (2 μg/mL, Sigma-Aldrich Corp.), and maintained at 37° C. in 10% CO2 for 3 days.
(§2) RGC viability analysis. To analyze RGC viability a calcein and propidium iodide based live/dead kit was used after 3 DIV per the manufacturer's instructions (Life Technologies, R37601). Briefly, RGC cultures were incubated in the live/dead reagent for 15 minutes at room temperature and five random fields per well were imaged at 20× using standard epi-fluorescence fluorescein and rhodamine filter sets (Zeiss, Axio Observer). Live and dead cells were analyzed using ImageJ (National Institutes of Health, Bethesda, Md., USA). All graphical data represents three independent experimental repeats.

Assay in data set [3]: as above
It counts as cell-based, rat. The following applies: both sexes, Sprague-Dawley, rat, primary retinal ganglion cells (RGCs), 3 days in vitro. The procedure:
as §1, §2

In the case of `C=CC[C@@H]1/C=C(\C)C[C@H](C)C[C@H](OC)[C@H]2O[C@@](O)(C(=O)C(=O)N3CCCC[C@H]3C(=O)O[C@H](/C(C)=C/[C@@H]3CC[C@@H](O)[C@H](OC)C3)[C@H](C)[C@@H](O)CC1=O)[C@H](C)C[C@@H]2OC` [tacrolimus], the concentration at 24 h in data set [1] (24 hours post systemic injection) came out at 18.8 ± 14.8 ng/mL. Besides, in data set [1] (14 days, systemically treated animals), the concentration at 14 days stood at 14 ± 10.6 ng/mL. Also, the “increase in RGC viability versus EtOH vehicle (70%)” value in data set [2] (0.5 μM tacrolimus) was 17.4%. Also, the IC50 in data set [2] (Rattus norvegicus, 72 h) was 24.2 µM; in data set [2] it was 25 µM. In addition, the “effect of dosage on neuron survival (live/dead study)” value in data set [2] (discussion statement) is given as “no significant effect”. Besides, in data set [3] (0.5 μM tacrolimus), the viability at 3 days, 0.5 μM was 87.4%. Moreover, in data set [3] (50 μM tacrolimus), the viability at 3 days, 50 μM was 0%.

The term IC50 denotes the concentration that gives 50% inhibition. One may read the viability as a per cent measure of how many cells are alive, often set against a control.
